Results reported in ChEMBL document CHEMBL1201862, “PubChem BioAssay data set” (2004).
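Compound exposure: 48 hours, 5 concentrations, 96-well plates. Here, GI50 denotes the concentration required for 50% inhibition of growth.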 Calls of active or inactive are those of the source. Cut-off read from the data, not from the text of the source: active = GI50 up to about 1.1 µM and inactive = higher.

Experiments:
Test in all cases: NCI-60 cell line screen, 48 h
DU-145 = test system: DU-145
Hs-578T = test system: Hs-578T
MDA-MB-435 = test system: MDA-MB-435
MDA-N = test system: MDA-N
PC-3 = test system: PC-3
T47D = test system: T47D
RXF 631 = test system: RXF 631
BT-549 = test system: BT-549

Measured: GI50

O=C1CCC[C@H]2O[C@@H](COC(=O)c3ccccc3)C[C@H]2O1
inactive: DU-145 > 100 µM | Hs-578T > 100 µM | MDA-MB-435 > 100 µM | MDA-N > 100 µM | PC-3 > 100 µM | T47D > 100 µM

COc1ccc(/C(Cl)=C(\C=O)c2ccc(Cl)cc2)cc1
inactive: RXF 631 3.64 µM

O=C(NCCN(CCNC(=O)c1cccc(=O)n1O)CCNC(=O)c1cccc(=O)n1O)c1cccc(=O)n1O
inactive: BT-549 > 100 µM | DU-145 > 100 µM | Hs-578T > 100 µM | MDA-MB-435 > 100 µM | MDA-N > 100 µM | PC-3 > 100 µM | T47D > 100 µM
